IC50 data for three molecules are collected here from ChEMBL document CHEMBL6153160, “Novel 3-Cycloaminoindole Compounds as Serotonergic Psychedelic Agents for Treating Psychosis, Mental Illness, and CNS Disorders” (ACS Med Chem Lett, 2025).

The target in this assay is 5-hydroxytryptamine receptor 2A (Homo sapiens, UniProt P28223). Description: Displacement of [3H]-ketanserin from human 5-HT2A receptor incubated for 90 mins by microbeta2 microplate counter assay.
Chain of 5-hydroxytryptamine receptor 2A (P28223 whole entry): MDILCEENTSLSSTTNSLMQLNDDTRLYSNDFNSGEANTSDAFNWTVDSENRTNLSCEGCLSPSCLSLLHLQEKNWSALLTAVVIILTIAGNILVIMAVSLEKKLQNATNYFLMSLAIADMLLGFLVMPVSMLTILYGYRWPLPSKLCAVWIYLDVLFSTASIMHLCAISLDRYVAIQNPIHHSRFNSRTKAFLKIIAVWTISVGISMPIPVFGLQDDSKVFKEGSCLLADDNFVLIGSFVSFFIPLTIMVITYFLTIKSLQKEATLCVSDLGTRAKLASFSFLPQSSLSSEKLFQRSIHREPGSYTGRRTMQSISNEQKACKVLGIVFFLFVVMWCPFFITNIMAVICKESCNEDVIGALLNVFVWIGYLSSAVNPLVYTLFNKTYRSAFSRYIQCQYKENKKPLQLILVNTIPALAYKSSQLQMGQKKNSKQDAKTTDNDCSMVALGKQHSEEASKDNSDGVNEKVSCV
In the case of `CN(C)CCc1c[nH]c2ccccc12`, the half-inhibitory concentration (IC50) is < 500 nM.

In the case of `[2H]c1[nH]c2c([2H])c([2H])c([2H])c([2H])c2c1C1CC([2H])([2H])N(C)C1([2H])[2H]` (stereo not drawn), the IC50 is < 500 nM.

In the case of `[2H]c1[nH]c2c([2H])c([2H])c([2H])c([2H])c2c1C1CCN(C)C1` (stereo not drawn), the IC50 was < 500 nM.
